From patent publication US6191282A, “Substituted 5-membered ring heterocycles comprising a bicyclic or tricyclic group their preparation and their use” (Hoechst Marion Roussel, priority 1993, dated 2001)
Where a name gives a salt, the structure may show the parent alone. Read-outs that look alike come from different tables or passages of the source.

Columns and labels:
[1] = system: gel-filtered human thrombocytes; assay: Inhibition of the aggregation of gel-filtered human thrombocytes following stimulation with ADP or thrombin (Test method 1); assay type: cell-based; conditions: 1 mg/ml fibrinogen, 37° C., GFP from 2-4 donors
Procedure: As a functional test, measurement is made of the inhibition of the aggregation of gel-filtered human thrombocytes, following stimulation with ADP or thrombin, by the compounds according to the invention.
For this purpose, human thrombocytes were isolated from platelet-rich plasma (PRP) by gel filtration on Sepharose 2 B. The resulting suspension of gel-filtered platelets (GFP), which contained 3×10^8 platelets/ml, was activated in the presence of 1 mg/ml of fibrinogen either with 10 μM ADP or with 0.1 U/ml thrombin, and stirred in an aggregometer (PAP 4, Biodata, Hatboro, Penna., USA) at 37° C. and at 1000 revolutions per minute. The maximum increase in the translucency is taken as a measure of the aggregation. The test substances were added to the GFP at 37° C. and 2 min before activating with ADP or thrombin.

[2] = molecular target: T1, isolated fibrinogen receptor (glycoprotein IIb/IIIa) (Homo sapiens, UniProt P05106+P08514); assay: Inhibition of 125I-fibrinogen binding to the isolated, immobilized receptor (glycoprotein IIb/IIIa) (Test method 3); conditions: isolated receptor immobilized in microtitre plates
T1 construct: isolated from human thrombocytes and immobilized in microtitre plates; from tissue; host or cells: human thrombocytes (platelets), receptor isolated
T1 sequence (P08514 32-887 limits assumed): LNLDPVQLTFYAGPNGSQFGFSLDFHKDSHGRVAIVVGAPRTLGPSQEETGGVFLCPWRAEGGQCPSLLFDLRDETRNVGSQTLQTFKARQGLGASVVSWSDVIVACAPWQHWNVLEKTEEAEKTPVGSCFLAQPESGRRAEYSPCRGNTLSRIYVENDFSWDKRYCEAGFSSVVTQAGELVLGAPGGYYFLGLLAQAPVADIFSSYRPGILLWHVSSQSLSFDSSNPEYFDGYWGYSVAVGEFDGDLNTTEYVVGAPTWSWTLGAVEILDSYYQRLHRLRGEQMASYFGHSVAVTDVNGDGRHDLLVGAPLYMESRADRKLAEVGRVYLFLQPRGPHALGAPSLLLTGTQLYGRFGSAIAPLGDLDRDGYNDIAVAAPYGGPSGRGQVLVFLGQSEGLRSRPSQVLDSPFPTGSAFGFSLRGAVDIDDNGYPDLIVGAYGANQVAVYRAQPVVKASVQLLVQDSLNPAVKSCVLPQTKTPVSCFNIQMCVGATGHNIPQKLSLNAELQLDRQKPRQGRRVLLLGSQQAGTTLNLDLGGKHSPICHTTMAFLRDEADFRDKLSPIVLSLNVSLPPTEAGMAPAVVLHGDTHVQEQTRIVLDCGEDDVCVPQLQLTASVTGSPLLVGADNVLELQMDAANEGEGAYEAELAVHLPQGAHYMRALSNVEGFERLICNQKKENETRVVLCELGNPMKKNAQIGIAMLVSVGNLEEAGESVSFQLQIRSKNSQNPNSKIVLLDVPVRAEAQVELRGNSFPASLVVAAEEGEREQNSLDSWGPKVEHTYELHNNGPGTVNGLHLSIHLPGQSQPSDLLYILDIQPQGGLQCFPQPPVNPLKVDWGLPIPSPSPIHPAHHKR
T1 sequence (P08514 891-1039 partner limits assumed): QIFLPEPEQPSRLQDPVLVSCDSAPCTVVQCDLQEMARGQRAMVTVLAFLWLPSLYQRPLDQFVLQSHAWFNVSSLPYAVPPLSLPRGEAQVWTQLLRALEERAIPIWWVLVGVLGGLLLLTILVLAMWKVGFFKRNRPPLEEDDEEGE
T1 sequence (P05106 27-788): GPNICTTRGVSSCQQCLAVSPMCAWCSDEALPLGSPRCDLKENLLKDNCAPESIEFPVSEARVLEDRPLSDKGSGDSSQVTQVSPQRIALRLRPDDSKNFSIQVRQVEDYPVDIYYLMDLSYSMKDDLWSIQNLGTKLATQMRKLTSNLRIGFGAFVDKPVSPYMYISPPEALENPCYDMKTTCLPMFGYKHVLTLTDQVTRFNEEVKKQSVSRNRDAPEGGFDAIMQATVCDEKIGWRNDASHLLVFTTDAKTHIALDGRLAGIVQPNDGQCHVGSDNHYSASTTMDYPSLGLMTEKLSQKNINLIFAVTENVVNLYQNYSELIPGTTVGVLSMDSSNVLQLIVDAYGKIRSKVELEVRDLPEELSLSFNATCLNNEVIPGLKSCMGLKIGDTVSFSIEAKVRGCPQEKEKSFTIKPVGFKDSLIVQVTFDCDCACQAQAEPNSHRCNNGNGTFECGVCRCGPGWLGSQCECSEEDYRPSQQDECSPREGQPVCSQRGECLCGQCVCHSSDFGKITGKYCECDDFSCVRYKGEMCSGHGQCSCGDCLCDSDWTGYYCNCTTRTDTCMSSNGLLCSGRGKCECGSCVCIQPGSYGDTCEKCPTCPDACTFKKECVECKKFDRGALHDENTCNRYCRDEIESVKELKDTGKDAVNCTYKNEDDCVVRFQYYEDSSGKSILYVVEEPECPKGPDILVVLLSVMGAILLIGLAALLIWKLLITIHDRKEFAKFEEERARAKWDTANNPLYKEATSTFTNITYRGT
Procedure: The inhibition of the binding of fibrinogen to its receptor (glycoprotein IIb/IIIa) which is brought about by the compounds according to the invention is tested on the isolated receptor, which was isolated from human thrombocytes and immobilized in microtitre plates.

[3] = molecular target: T2, fibrinogen receptor (glycoprotein IIb/IIIa) on intact, gel-filtered human thrombocytes (Homo sapiens, UniProt P05106+P08514); assay: Inhibition of 125I-fibrinogen binding to its receptor (glycoprotein IIb/IIIa) on intact, gel-filtered human thrombocytes (Test method 2); conditions: intact GFP, 10 μM ADP, 40 nmol/l 125I-fibrinogen, room temperature, 30 min; read-out: Ki, inhibition of the binding of 125I-fibrinogen, ADP-stimulated
T2 construct: endogenous in cells; host or cells: human thrombocytes isolated from platelet-rich plasma by gel filtration on Sepharose 2 B
T2 sequence (P08514 32-887 limits assumed): as the sequence (P08514 32-887 limits assumed) above
T2 sequence (P08514 891-1039 partner limits assumed): as the sequence (P08514 891-1039 partner limits assumed) above
T2 sequence (P05106 27-788): as the sequence (P05106 27-788) above
Procedure: The inhibition of the binding of fibrinogen to its receptor (glycoprotein IIb/IIIa) by the compounds according to the invention is tested on intact, gel-filtered human thrombocytes.
For this purpose, human thrombocytes were isolated from platelet-rich plasma (PRP) by gel filtration on Sepharose 2 B. A suspension of gel-filtered platelets (GFP) was obtained which contained 4×10^8platelets/ml. […] Aliquots of 100 μl were then added onto 20% sucrose, and the platelets were sedimented by being centrifuged for 2 minutes at 12,000 revolutions per minute. The supernatant was decanted carefully and completely and the remaining sediment was measured in a gamma counter. The specific binding was ascertained by subtracting the binding in the presence of an excess (10 μM) of unlabelled fibrinogen from the total bound radioactivity.

[4] = Homo sapiens, ADP-stimulated (10 μM ADP), read-out: IC50, inhibition of thrombocyte aggregation, ADP-stimulated
[5] = Homo sapiens, Thrombin-stimulated (0.1 U/ml thrombin), read-out: IC50, inhibition of thrombocyte aggregation, Thrombin-stimulated
[6] = read-out: Ki, inhibition of the binding of 125I-fibrinogen, ADP-stimulated
[7] = ADP-stimulated (10 μM ADP), read-out: IC50, inhibition of thrombocyte aggregation, ADP-stimulated
[8] = Thrombin-stimulated (0.1 U/ml thrombin), read-out: IC50, inhibition of thrombocyte aggregation, Thrombin-stimulated
[9] = Ki, inhibition of the binding of 125I-fibrinogen, ADP-stimulated

| IC50 [1, 4] [nM] | IC50 [1, 5] [nM] | Ki [2, 6] [nM] | IC50 [1, 7] [nM] | IC50 [1, 8] [nM] | Ki [3] [nM] | SMILES | Ki [2, 9] [nM] |
| --- | --- | --- | --- | --- | --- | --- | --- |
| 200 | 200 | 0.748 |  |  |  | CC1(c2ccc(C(=N)N)cc2)NC(=O)N(CC(=O)NC(CC(=O)O)c2ccccc2)C1=O (racemic) [Example 13, (R,S)-3-(((R,S)-4-(4-(Aminoiminomethyl)phenyl)-4-methyl-2,5-dioxoimidazolidin-1-yl)acetylamino)-3-phenylpropionic acid hydrochloride] |  |
| 80 | 150 | 0.948 |  |  |  | CC1(c2ccc(C(=N)N)cc2)NC(=O)N(CC(=O)NC(CC(=O)O)c2cccc([N+](=O)[O-])c2)C1=O (racemic) [Example 39, (R,S)-3-(((R,S)-4-(4-(Aminoiminomethyl)phenyl)-4-methyl-2,5-dioxoimidazolidin-1-yl)acetylamino)-3-(3-nitrophenyl)propionic acid] |  |
| 400 | 250 | 1.99 |  |  |  | CC1(c2ccc(C(=N)N)cc2)NC(=O)N(CC(=O)NC(CC(=O)O)c2ccc(C(=O)O)cc2)C1=O (racemic) [Example 40, (R,S)-3-(((R,S)-4-(4-(Aminoiminomethyl)phenyl)-4-methyl-2,5-dioxoimidazolidin-1-yl)acetylamino)-3-(4-hydroxycarbonylphenyl)propionic acid] |  |
| 100 | 100 | 1.23 |  |  |  | CC1(c2ccc(C(=N)N)cc2)NC(=O)N(CC(=O)NC(CC(=O)O)c2ccc(-c3ccccc3)cc2)C1=O (racemic) [Example 46, (R,S)-3-(((R,S)-4-(4-Aminoiminomethyl)phenyl)-4-methyl-2,5-dioxoimidazolidin-1-yl)acetylamino)-3-(4-phenylphenyl)propionic acid] |  |
|  |  | 37.3 | 6000 | 5000 | 1970 | CC1(c2ccc(C(=N)N)cc2)NC(=O)N(CC(=O)N[C@@H](CC(=O)O)c2ccccc2)C1=O (single isomer, unassigned) [Example 57, (S)-3-(((S or R)-4-(4-Aminoiminomethyl)phenyl)-4-methyl-2,5-dioxoimidazolidin-1-yl)acetylamino)-3-phenylpropionic acid] |  |
|  |  | 0.172 | 20 | 25 | 9.2 | CC1(c2ccc(C(=N)N)cc2)NC(=O)N(CC(=O)N[C@@H](CC(=O)O)c2ccccc2)C1=O (single isomer, unassigned) [Example 58, (S)-3-(((R or S)-4-(4-Aminoiminomethyl)phenyl)-4-methyl-2,5-dioxoimidazolidin-1-yl)acetylamino)-3-phenylpropionic acid] |  |
| 2000 | 1000 |  |  |  |  | CC(C)(C)OC(=O)NN(CC(=O)O)C(=O)CN1C(=O)NC(=Cc2ccc(C(=N)N)cc2)C1=O [Example 20] |  |
|  |  |  | 55 | 80 |  | CCN1C(=O)N(CC(=O)N[C@@H](CC(=O)O)C(=O)N[C@H](C(=O)O)c2ccccc2)C(=O)C1(C)c1ccc(C(=N)N)cc1 (stereo partly drawn) [Example 24, ((R,S)-4-(4-(Aminoiminomethyl)phenyl)-3-ethyl-4-methyl-2,5-dioxoimidazolidin-1-yl)acetyl-L-aspartyl-L-phenylglycine] |  |
| 50 | 45 |  |  |  |  | CC1(c2ccc(C(=N)N)cc2)NC(=O)N(CC(=O)N[C@@H](CC(=O)O)C(=O)NC23CC4CC(CC(C4)C2)C3)C1=O (stereo partly drawn) [Example 68, (2-((R,S)-4-(4-(aminoiminomethyl)phenyl)-4-methyl-2,5-dioxoimidazolidin-1-yl)acetyl)-L-aspartyl-1-adamantylamide] |  |
| 25 | 45 |  |  |  |  | CC1(c2ccc(C(=N)N)cc2)NC(=O)N(CC(=O)N[C@@H](CC(=O)O)C(=O)NC2C3CC4CC(C3)CC2C4)C1=O (stereo partly drawn) [Example 69, (2-((R,S)-4-(4-(Aminoiminomethyl)phenyl)-4-methyl-2,5-dioxoimidazolidin-1-yl)acetyl)-L-aspartyl-2-adamantylamide] |  |
| 65 | 70 |  |  |  |  | CC1(c2ccc(C(=N)N)cc2)NC(=O)N(CC(=O)N[C@@H](CC(=O)O)C(=O)NCC23CC4CC(CC(C4)C2)C3)C1=O (stereo partly drawn) [Example 70, (2-((R,S)-4-(4-(Aminoiminomethyl)phenyl)-4-methyl-2,5-dioxoimidazolidin-1-yl)acetyl)-L-aspartyl-(1-adamantylmethyl)amide] |  |

Continued, compound first:

| SMILES | IC50 [1, 4] [nM] | IC50 [1, 5] [nM] | Ki [2, 6] [nM] | IC50 [1, 7] [nM] | IC50 [1, 8] [nM] | Ki [3] [nM] | Ki [2, 9] [nM] |
| --- | --- | --- | --- | --- | --- | --- | --- |
| CC1(c2ccc(C(=N)N)cc2)NC(=O)N(CC(=O)N[C@@H](CC(=O)O)C(=O)N[C@H](C(=O)O)c2ccccc2)C1=O (single isomer, unassigned) [Example 21, ((S or R)-4-(4-(Aminoiminomethyl)phenyl)-4-methyl-2,5-dioxoimidazolidin-1-yl)acetyl-L-aspartyl-L-phenylglycine] |  |  |  | 800 | 500 |  | 1.9 |
| CC1(c2ccc(C(=N)N)cc2)NC(=O)N(CC(=O)N[C@@H](CC(=O)O)C(=O)N[C@H](C(=O)O)c2ccccc2)C1=O (single isomer, unassigned) [Example 22, ((R or S)-4-(4-(Aminoiminomethyl)phenyl)-4-methyl-2,5-dioxoimidazolidin-1-yl)acetyl-L-aspartyl-L-phenylglycine] |  |  |  | 25 | 50 |  | 0.15 |
| N=C(N)c1ccc(CC2NC(=O)N(CC(=O)NC[C@H](NC(=O)OCc3ccccc3)C(=O)O)C2=O)cc1 (stereo partly drawn) [Example 9, 3-(((R,S)-4-(4-(Aminoiminomethyl)benzyl)-2,5-dioxoimidazolidin-1-yl)acetylamino)-2-benzyloxycarbonylaminopropionic acid] | 1000 | 500 |  |  |  |  |  |
| CC1(c2ccc(NC(=N)N)cc2)NC(=O)N(CC(=O)N[C@@H](CC(=O)O)C(=O)N[C@H](C(=O)O)c2ccccc2)C1=O (stereo partly drawn) [Example 10, ((R,S)-4-(4-Guanidinophenyl)-4-methyl-2,5-dioxoimidazolidin-1-yl)acetyl-L-aspartyl-L-phenylglycine] | 150 | 60 |  |  |  |  |  |
| COC(=O)[C@@H](NC(=O)[C@H](CC(=O)O)NC(=O)CN1C(=O)NC(C)(c2ccc(C(=N)N)cc2)C1=O)c1ccccc1 (stereo partly drawn) [Example 23, ((R,S)-4-(4-(Aminoiminomethyl)phenyl)-4-methyl-2,5-dioxoimidazolidin-1-yl)acetyl-L-aspartyl-L-phenylglycine methyl ester] | 30 | 50 |  |  |  |  |  |
| CC1(c2ccc(C(=N)N)cc2)C(=O)N(CC(=O)N[C@@H](CC(=O)O)C(=O)N[C@H](C(=O)O)c2ccccc2)C(=O)N1Cc1ccccc1 (some centres unmarked) [Example 25] | 30 | 50 | 0.175 |  |  |  |  |
| N=C(N)c1ccc(C2(C3CC3)NC(=O)N(CC(=O)N[C@@H](CC(=O)O)C(=O)N[C@H](C(=O)O)c3ccccc3)C2=O)cc1 (stereo partly drawn) [Example 26, ((R,S)-4-(4-(Aminoiminomethyl)phenyl)-4-cyclopropyl-2,5-dioxoimidazolidin-1-yl)acetyl-L-aspartyl-L-phenylglycine] | 20 | 40 | 0.117 |  |  |  |  |
| CCC1(c2ccc(C(=N)N)cc2)NC(=O)N(CC(=O)N[C@@H](CC(=O)O)C(=O)N[C@H](C(=O)O)c2ccccc2)C1=O (stereo partly drawn) [Example 27, ((R,S)-4-(4-(Aminoiminomethyl)phenyl)-4-ethyl-2,5-dioxoimidazolidin-1-yl)acetyl-L-aspartyl-L-phenylglycine] | 25 | 40 | 0.107 |  |  |  |  |
| N=C(N)c1ccc(C2(Cc3ccccc3)NC(=O)N(CC(=O)N[C@@H](CC(=O)O)C(=O)N[C@H](C(=O)O)c3ccccc3)C2=O)cc1 (stereo partly drawn) [Example 28, ((R,S)-4-(4-(Aminoiminomethyl)phenyl)-4-benyl-2,5-dioxoimidazolidin-1-yl)acetyl-L-aspartyl-L-phenylglycine] | 25 | 40 | 0.078 |  |  |  |  |
| CC(C)(C)C1(c2ccc(C(=N)N)cc2)NC(=O)N(CC(=O)N[C@@H](CC(=O)O)C(=O)N[C@H](C(=O)O)c2ccccc2)C1=O (some centres unmarked) [Example 29] | 50 | 40 |  |  |  |  |  |
